Test results: US8859599B2, “Androgen receptor modulating compounds, preparation and uses thereof” (priority 2009, dated 2014)
Like-named read-outs stand apart in the source and are kept apart here.

Assays:
[1] = system: LNCaP cells; experiment: Sulforhodamine B (SRB) in vitro chemosensitivity assay on LNCaP cells; assay type: cell-based; conditions: for cytostatic effect: suppression of cell growth: highest concentration tested
Method: Sulforhodamine B (SRB) assay was used according to the method by Skehan et al. (JNCI, 1990). Briefly, cells were collected by trypsinization, counted and plated at a density of 5,000 cells/well in 96-well flat-bottomed microtiter plates (100 μl of cell suspension/well). In the chemosensitivity assay, experiments were run in octuplicate, and each experiment was repeated three times. The optical density (OD) of cells was determined at a wavelength of 490 nm by a colorimetric plate reader.
Growth inhibition and cytocidal effect of drugs were calculated according to the formula reported by Monks et al. (JNCI, 1991): [(ODtreated−ODzero)/(ODcontrol−ODzero)]×100%, when ODtreated is > to ODzero. If ODtreated is above ODzero, treatment has induced a cytostatic effect, whereas if ODtreated is below ODzero, cell killing has occurred. The ODzero depicts the cell number at the moment of drug addition, the ODcontrol reflects the cell number in untreated wells and the ODtreated reflects the cell number in treated wells on the day of the assay. TUNEL Assay
The authors examined the antitumour activity of the compounds for which the synthesis is described above, in the hormone-sensitive prostate cancer cell line LNCaP. (R)-Bicalutamide and the novel compounds were tested at the increasing concentrations of […]. The highest dose used was chosen on the basis of the clinically achievable peak plasma concentration reported in the literature for bicalutamide (Cockshott I D. Clin Pharmacokinet. 2004; 43 (13) 855-78).
After 144-hr exposure time, the cytotoxic effect of the molecules was calculated according to the method of Monks et al. (Monks A, et al., J. Nat. Cancer Inst. 1991; 83: 757-66).

[2] = system: LNCaP-AR cells; experiment: TUNEL assay of apoptotic cells in LNCaP-AR; assay type: cell-based, human; conditions: 144 h, 20.0 μM
[3] = target: T1, human androgen receptor (hAR) (Homo sapiens, UniProt P10275); experiment: hAR transactivation assay (ARE-luciferase reporter) in Cos-7 cells; assay type: cell-based; conditions: for inhibition of androgen-induced transcriptional activation (antagonistic activity): cells challenged with 10 nM R1881, compound at 10 μM
T1 construct: The cDNA coding hAR was cloned into the pSG5 expression vector as reported previously; expressed in transfected cells; host or cells: Cos-7 cells transiently transfected with pSG5-hAR
T1 sequence (P10275 1-920): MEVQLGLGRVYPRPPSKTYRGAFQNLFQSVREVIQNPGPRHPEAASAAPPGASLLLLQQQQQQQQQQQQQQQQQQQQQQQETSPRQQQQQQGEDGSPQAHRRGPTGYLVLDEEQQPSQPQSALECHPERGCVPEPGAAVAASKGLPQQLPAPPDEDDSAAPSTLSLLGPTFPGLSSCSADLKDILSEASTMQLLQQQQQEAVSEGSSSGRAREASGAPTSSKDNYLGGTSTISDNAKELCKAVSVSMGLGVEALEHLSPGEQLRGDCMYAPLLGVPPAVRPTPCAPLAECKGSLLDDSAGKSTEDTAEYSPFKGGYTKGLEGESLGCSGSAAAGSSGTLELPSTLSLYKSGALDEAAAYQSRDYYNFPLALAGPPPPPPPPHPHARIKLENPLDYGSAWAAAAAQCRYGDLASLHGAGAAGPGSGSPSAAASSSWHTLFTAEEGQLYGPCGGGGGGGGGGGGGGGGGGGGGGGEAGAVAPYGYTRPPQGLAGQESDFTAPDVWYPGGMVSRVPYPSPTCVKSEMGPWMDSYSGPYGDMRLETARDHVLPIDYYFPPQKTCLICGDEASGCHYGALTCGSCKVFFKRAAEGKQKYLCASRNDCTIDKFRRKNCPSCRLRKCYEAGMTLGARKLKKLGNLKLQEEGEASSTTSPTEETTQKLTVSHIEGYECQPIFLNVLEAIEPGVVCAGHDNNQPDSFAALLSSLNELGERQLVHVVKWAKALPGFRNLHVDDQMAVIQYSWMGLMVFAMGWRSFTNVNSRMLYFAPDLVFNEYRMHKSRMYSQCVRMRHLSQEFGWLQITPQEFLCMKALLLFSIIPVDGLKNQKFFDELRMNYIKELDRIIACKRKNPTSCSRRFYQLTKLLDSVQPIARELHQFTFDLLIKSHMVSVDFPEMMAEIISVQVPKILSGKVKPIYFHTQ
Method: The cDNA coding hAR was cloned into the pSG5 expression vector as reported previously [Chang, C. S., et al., Science (1988)240:324-326]. The 3416 construct (ARE-Luc), containing four copies of the wild-type slp-HRE2 (5′-TGGTCAgccAGTTCT-3′) (SEQ ID No. 1) was cloned in the NheI site in pTK-TATA-Luc [Verrijdt, G. et al., J. Biol. Chem. (2000)275:12298-12305].
For androgen-stimulated transcriptional analysis, 32×10^4 Cos-7 cells were plated in phenol red-free DMEM containing 5% charcoal-stripped serum. After 48 h, the cells were transfected by Superfect (Qiagen) with 0.3 μg of 3416-pTK-TATA-Luc construct, together with 1.5 μg of either pSG5-empty plasmid or pSG5-hAR expressing plasmid. After 18 h, transfected cells were stimulated for 24 h with 10 nM of the synthetic androgen, R1881 (from Perkin-Elmer; dissolved in 0.001% ethanol, final concentration), in the absence or presence of the indicated concentrations of synthetic compounds. When indicated, the synthetic compounds were added alone to the cell medium. […] It was dissolved in 0.001% (final concentration) ethanol. Control cells were treated with the vehicle alone. Lysates were prepared and the luciferase activity was measured using a luciferase assay system (Promega). The results were corrected using CH110-expressed beta-galactosidase activity (Amersham Biosciences) and luciferase activity was expressed as fold induction. Results were obtained from two or three different experiments, each performed in duplicate. Mean and SEM are shown.

[4] = Homo sapiens, LNCaP cells, 144 h exposure, read-out: Growth inhibition (GI50)
[5] = Homo sapiens, LNCaP, 144 h, read-out: Growth inhibition (GI50), LNCaP cells, 144 h exposure
[6] = LNCaP cells, 144 h exposure, n.r. = not reached

In the case of `C[C@@]1(CS(=O)(=O)c2ccc(F)cc2)NC(=O)N(c2ccc(C#N)c(C(F)(F)F)c2)C1=O` [(R)-28, (R)-4-(4-((4-fluorophenylsulfonyl)methyl)-4-methyl-2,5-dioxoimidazolidin-1-yl)-2-(trifluoromethyl)benzonitrile], the “cytocidal effects by 50% (LC50)” value [1] was “n.r” and the GI50 [1, 4] was 14.9 µM.
`C[C@@](N)(CS(=O)(=O)c1ccc(F)cc1)C(=O)Nc1ccc(C#N)c(C(F)(F)F)c1` [(S)-23] was tested, and the GI50 [1, 5] was 9.4 µM and the “cytocidal effects by 50% (LC50)” value [1, 6] was “n.r”.
For `C[C@@]1(CS(=O)(=O)c2ccc(F)cc2)C(=O)N(c2ccc(C#N)c(C(F)(F)F)c2)C(=S)N1S(C)(=O)=O` [(S)-30], the “cytocidal effects by 50% (LC50)” value [1] was “n.r” and the “Growth inhibition (GI50)” value ([1]; LNCaP cells, 144 h exposure) was “n.r”.
For `N#Cc1ccc(N2C(=O)[C@@](CS(=O)(=O)c3ccc(F)cc3)(c3ccccc3)NC2=S)cc1C(F)(F)F` [(R)-13, (R)-4-(4-((4-fluorophenylsulfonyl)methyl)-5-oxo-4-phenyl-2-thioxoimidazolidin-1-yl)-2-(trifluoromethyl)benzonitrile], the “cytocidal effects by 50% (LC50)” value [1] was “n.r” and the GI50 [1, 4] was 14 µM.
With `C[C@]1(CS(=O)(=O)c2ccc(F)cc2)NC(=O)N(c2ccc(C#N)c(C(F)(F)F)c2)C1=O` [(S)-28] the “cytocidal effects by 50% (LC50)” value [1] was “n.r” and the GI50 [1, 4] was 1.8 µM.
For `Cc1ccc(S(=O)(=O)N[C@@](C)(CS(=O)(=O)c2ccc(F)cc2)C(=O)Nc2ccc(C#N)c(C(F)(F)F)c2)cc1` [(R)-26], the GI50 [1, 5] was 9.3 µM, the “cytocidal effects by 50% (LC50)” value [1, 6] was “n.r” and the “apoptosis induction in the LNCaP derivative cell line versus LNCaP” value [2] was “more active”. For the same compound, the “inhibition of androgen-induced transcriptional activation (antagonistic activity)” value (“inhibition … (antagonistic activity)” for short) [3] was “does not show antagonistic activity”.
In the case of `C[C@@]1(CS(=O)(=O)c2ccc(F)cc2)C(=O)N(c2ccc(C#N)c(C(F)(F)F)c2)C(=O)N1S(C)(=O)=O` [(S)-29], the “cytocidal effects by 50% (LC50)” value [1] was “n.r” and the GI50 [1, 4] was 12.5 µM.
`N#Cc1ccc(NC(=O)[C@](N)(Cc2ccccc2)CS(=O)(=O)c2ccc(F)cc2)cc1C(F)(F)F` [(R)-8, (R)-2-amino-2-benzyl-N-(4-cyano-3-(trifluoromethyl)phenyl)-3-(4-fluorophenylsulfonyl)propanamide] was tested, and the “cytocidal (cell killing) activity” value ([1]; LNCaP cells, 144 h exposure) was “cytocidal activity”.
In the case of `CS(=O)(=O)N[C@@](CS(=O)(=O)c1ccc(F)cc1)(C(=O)Nc1ccc(C#N)c(C(F)(F)F)c1)c1ccccc1` [(R)-12], the “inhibition … (antagonistic activity)” value [3] was “does not interfere” and the “agonistic activity, compound alone” value ([3]; range between 10 nM-10 μM) was “does not show agonistic activity”.
`N#Cc1ccc(NC(=O)C(N)(Cc2ccccc2)CS(=O)(=O)c2ccc(F)cc2)cc1C(F)(F)F` (stereo in doubt) [(S)-8] was tested, and the “cytocidal effects by 50% (LC50)” value [1] was “n.r”, the GI50 [1, 4] was 10.4 µM and the “cytostatic effect: suppression of cell growth” value (shortened to “cytostatic effect: suppression”) ([1]; LNCaP cells, 144 h) was “suppress completely the cell growth”.
For `N#Cc1ccc(NC(=O)[C@](N)(Cc2ccc(F)cc2)c2ccccc2)cc1C(F)(F)F` [(S)-36], the “cytocidal effects by 50% (LC50)” value [1] was “n.r”, the GI50 [1, 4] was 4.3 µM and the “cytostatic effect: suppression” value ([1]; LNCaP cells, 144 h) was “suppress completely the cell growth”.
With `N#Cc1ccc(NC(=O)C(N)(CS(=O)(=O)c2ccc(F)cc2)c2ccccc2)cc1C(F)(F)F` (stereo in doubt) [(S)-9] the “cytostatic effect: suppression” value ([1]; LNCaP cells, 144 h) was “suppress completely the cell growth”, the “cytocidal effects by 50% (LC50)” value [1, 6] was “n.r” and the GI50 ([1]; read-out: Growth inhibition (GI50), LNCaP cells, 144 h exposure) was 4 µM.
In the case of `C[C@@]1(CS(=O)(=O)c2ccc(F)cc2)NC(=S)N(c2ccc(C#N)c(C(F)(F)F)c2)C1=O` [(R)-27], the “cytocidal effects by 50% (LC50)” value [1] was “n.r” and the GI50 [1, 4] was 15.2 µM.
With `C[C@]1(O)CC[C@H]2[C@@H]3CCC4=CC(=O)CCC4=C3C=C[C@@]21C` [R1881, methyltrienolone-17β-hydroxy-17-methyl-estra-4,9.11-trien-3-one, reference compound] the “increase of AR-mediated transcriptional activation” value ([3]; 10 nM, Cos-7 cells, ARE-reporter gene) was “about 11 fold”.
In the case of `C[C@]1(CS(=O)(=O)c2ccc(F)cc2)C(=O)N(c2ccc(C#N)c(C(F)(F)F)c2)C(=O)N1S(C)(=O)=O` [(R)-29], the “cytocidal effects by 50% (LC50)” value [1] was “n.r” and the GI50 [1, 4] was 12.3 µM.
With `C[C@]1(CS(=O)(=O)c2ccc(F)cc2)N=C(SS(C)(=O)=O)N(c2ccc(C#N)c(C(F)(F)F)c2)C1=O` [(S)-31] the “cytocidal effects by 50% (LC50)” value [1] was “n.r” and the “Growth inhibition (GI50)” value ([1]; LNCaP cells, 144 h exposure) was “n.r”.
With `N#Cc1ccc(OC[C@]2(Cc3ccccc3)NC(=O)N(c3ccc(C#N)c(C(F)(F)F)c3)C2=O)cc1` [(S)-14e] the “increase of transcriptional activity of AR, compound alone” value ([3]; 100 nM) was “about 55 fold”.
For `N#Cc1ccc(OCC(N)(Cc2ccccc2)C(=O)Nc2ccc(C#N)c(C(F)(F)F)c2)cc1` (stereo in doubt) [(R)-7c], the “agonistic activity in presence of Casodex” value ([3]; Casodex at 10 μM) was “inhibited” and the “increase of transcriptional activity of AR, compound alone” value ([3]; range between 10-100 nM) was “about 15 fold”.
In the case of `N#Cc1ccc(N2C(=O)[C@](Cc3ccccc3)(CS(=O)(=O)c3ccc(F)cc3)NC2=S)cc1C(F)(F)F` [(R)-11], the “cytocidal effects by 50% (LC50)” value [1] was “n.r”, the GI50 [1, 4] was 8.5 µM and the “cytocidal (cell killing) activity” value ([1]; LNCaP cells, 144 h exposure) was “cytocidal activity”. The “agonistic activity, compound alone” value ([3]; authors' experimental conditions) was “does not show agonistic activity” and the “inhibition … (antagonistic activity)” value [3] was “strong inhibition”.
